Measured values from patent US4268664A, “Process for the preparation of 1-N-isoseryl- or 1-N-(L-4-amino-2-hydroxybutyryl)-3',4'-dideoxykanamycin B and intermediates thereof” (Zaidan Hojin Biseibutsu Kagaku Kenkyu Kai, priority 1978, dated 1981).
Where two headings read alike, the source gives them in different places.

Assays:
Ps. aeruginosa M-0002 = assay: Antibacterial activity (MIC), serial dilution method; assay type: cell-based; conditions: Pseudomonas aeruginosa
Sta. aureus ApO-1 = assay: as above; assay type: cell-based; conditions: Staphylococcus aureus, APO1; nutrient agar, 37° C., 20 hours
B. anthracis No. 119 = assay: microbe, parasite or virus in culture; assay type: cell-based; conditions: Bacillus anthracis, NO.119, 20 h
[1] = test system: Sta. epidermidis ATCC 14990; assay: Antibacterial activity (MIC), serial dilution method; assay type: cell-based; conditions: Staphylococcus epidermidis, ATCC14990; nutrient agar, 37° C., 20 hours
[2] = test system: E. coli (M) Cast. & Chalm.NIHJ JC-2; assay: as above; assay type: cell-based; conditions: Escherichia coli
E. coli A-0001 = assay: as above; assay type: cell-based; conditions: Escherichia coli, A0001; nutrient agar, 37° C., 20 hours
Pro. rettgelli J-0026 = assay: as above; assay type: cell-based
E. coli W 677(A-20684) = assay: as above; assay type: cell-based; conditions: Escherichia coli; nutrient agar, 37° C., 20 hours
Method: (§1) Antimicrobial spectra of 1-N-(L-isoseryl)- and 1-N-(L-4-amino-2-hydroxybutyryl)-3',4'-dideoxy-3',4'-didehydrokanamycin B (1-AHP-eno-DKB and 1-AHB-eno-DKB) are shown in the following table together with that of 1-N-(L-4-amino-2-hydroxybutyryl)-3',4'-dideoxykanamycin B (1-AHB-DKB).
(§2) The minimum inhibitory concentrations (mcg/ml) of the compounds tested against various microorganisms were determined according to a serial dilution method using nutrient agar medium at 37° C., the estimation being effected after 20 hours-incubation.

Sal. species D-0006 = assay: as above; assay type: cell-based; conditions: nutrient agar, 37° C., 20 hours
Method: as §1, §2

Sal. species D-0029 = assay: as above; assay type: cell-based; conditions: nutrient agar, 37° C., 20 hours
Method: as §1, §2

Sal. species D-0001 = assay: as above; assay type: cell-based; conditions: nutrient agar, 37° C., 20 hours
Method: as §1, §2

[3] = test system: drug-resistant microbial strains including Pseudomonas aeruginosa; conditions: cited from earlier work
Pro. vulgaris OX19 = assay: Antibacterial activity (MIC), serial dilution method; assay type: cell-based; conditions: Proteus vulgaris, nutrient agar, 37° C., 20 hours
Serra. marcescens No. 2 = assay: as above; assay type: cell-based; conditions: Serratia marcescens, nutrient agar, 37° C., 20 hours
Serra. marcescens I-0043 = assay: as above; assay type: cell-based; conditions: Serratia marcescens
Sta. aureus N-0089 = assay: as above; assay type: cell-based; conditions: Staphylococcus aureus, N0089; nutrient agar, 37° C., 20 hours
Sal. typhimurium LT-2 = assay: as above; assay type: cell-based; conditions: Salmonella enterica
E. coli No. 29 = assay: as above; assay type: cell-based; conditions: Escherichia coli, nutrient agar, 37° C., 20 hours
Sta. epidermidis 109 = assay: as above; assay type: cell-based; conditions: Staphylococcus epidermidis, nutrient agar, 37° C., 20 hours
[4] = test system: Shigella dysenteriae Shigae; assay: microbe, parasite or virus in culture; assay type: cell-based; conditions: 20 h
Ps. aeruginosa M-0032 = assay: Antibacterial activity (MIC), serial dilution method; assay type: cell-based; conditions: Pseudomonas aeruginosa
Ps. aeruginosa NC-5 = assay: as above; assay type: cell-based; conditions: Pseudomonas aeruginosa
Ps. aeruginosa E-2 = assay: as above; assay type: cell-based; conditions: Pseudomonas aeruginosa
Str. faecalis ATCC 8043 = assay: as above; assay type: cell-based; conditions: Enterococcus faecalis, ATCC8043; nutrient agar, 37° C., 20 hours
B. subtilis ATCC 6633 = assay: as above; assay type: cell-based; conditions: Bacillus subtilis, ATCC6633; nutrient agar, 37° C., 20 hours
Pro. mirabilis J-0010 = assay: as above; assay type: cell-based; conditions: Proteus mirabilis
Sta. aureus Smith S-424 = assay: as above; assay type: cell-based; conditions: Staphylococcus aureus, SMITHS424; nutrient agar, 37° C., 20 hours
Sal. typhi 0-901-W = assay: as above; assay type: cell-based; conditions: Salmonella enterica, 20 h
[5] = test system: Kleb. pneumoniae 22# 3038 (A-20680); assay: as above; assay type: cell-based; conditions: Klebsiella pneumoniae
Serra. marcescens No. 1 = assay: as above; assay type: cell-based; conditions: Serratia marcescens, nutrient agar, 37° C., 20 hours
[6] = test system: Sal. enteritidis No. 11(T-okai); assay: as above; assay type: cell-based; conditions: Salmonella enterica
E. coli A-0003 = assay: as above; assay type: cell-based; conditions: Escherichia coli, A0003; nutrient agar, 37° C., 20 hours
Kleb. pneumoniae = assay: as above; assay type: cell-based; conditions: Klebsiella pneumoniae
[7] = test system: Ps. aeruginosa IID 1210 (IFO 3455); assay: as above; assay type: cell-based; conditions: Pseudomonas aeruginosa
[8] = test system: E. coli JR 66/W 677(A-20683); assay: as above; assay type: cell-based; conditions: Escherichia coli
[9] = test system: Sta. aureus Rosenbach FDA 209-P JC-1; assay: as above; assay type: cell-based; conditions: Staphylococcus aureus, FDA209; nutrient agar, 37° C., 20 hours
Pro. morganii K-ono = assay: as above; assay type: cell-based; conditions: Morganella morganii; nutrient agar, 37° C., 20 hours
Ps. aeruginosa M-0148 = assay: as above; assay type: cell-based; conditions: Pseudomonas aeruginosa
Pro. vulgaris J-0001 = assay: as above; assay type: cell-based; conditions: Proteus vulgaris
Ps. aeruginosa IAM-1007 = assay: as above; assay type: cell-based; conditions: Pseudomonas aeruginosa
Sta. aureus No. 26 = assay: as above; assay type: cell-based; conditions: Staphylococcus aureus, nutrient agar, 37° C., 20 hours
various microorganisms = assay: antimicrobial activity (in words); assay type: cell-based
Method: as §2

[10] = M0002, nutrient agar, 37° C., 20 hours, read-out: MIC
[11] = nutrient agar, 37° C., 20 hours, read-out: MIC
[12] = NIHJJC2, nutrient agar, 37° C., 20 hours, read-out: MIC
[13] = M0032, nutrient agar, 37° C., 20 hours, read-out: MIC
[14] = NC5, nutrient agar, 37° C., 20 hours, read-out: MIC
[15] = E2, nutrient agar, 37° C., 20 hours, read-out: MIC
[16] = J0010, nutrient agar, 37° C., 20 hours, read-out: MIC
[17] = J0001, nutrient agar, 37° C., 20 hours, read-out: MIC
[18] = IAM1007, nutrient agar, 37° C., 20 hours, read-out: MIC

NCCC(O)C(=O)NC1CC(N)C(OC2OC(CN)CCC2N)C(O)C1OC1OC(CO)C(O)C(N)C1O [1-AHB-DKB, 1-N-(L-4-amino-2-hydroxybutyryl)-3',4'-dideoxykanamycin B]
0.78 µg/mL: MIC [4] | MIC [5, 11] | MIC (Kleb. pneumoniae; [11]) | MIC (Sta. aureus No. 26)
1.56 µg/mL: MIC ([2]; NIHJJC2, 20 h) | MIC (Sal. species D-0006) | MIC (Sal. species D-0001) | MIC (Serra. marcescens I-0043; I0043, 20 h) | MIC (Sal. typhimurium LT-2; 20 h) | MIC (Pro. mirabilis J-0010; J0010, 20 h) | MIC ([6]; 20 h) | MIC ([8]; 20 h) | MIC (Pro. vulgaris J-0001; J0001, 20 h) | MIC (Ps. aeruginosa IAM-1007; IAM1007, 20 h)
0.1 µg/mL: MIC (B. anthracis No. 119) | MIC [1] | MIC (B. subtilis ATCC 6633)
12.5 µg/mL: MIC (Ps. aeruginosa M-0032; M0032, 20 h) | MIC ([7]; 20 h)
0.05 µg/mL: MIC [9]
6.25 µg/mL: MIC (Pro. rettgelli J-0026; 20 h) | MIC (Ps. aeruginosa NC-5; NC5, 20 h) | MIC (Ps. aeruginosa E-2; E2, 20 h) | MIC (Ps. aeruginosa M-0148; M0148, 20 h)
high activity: activity against a wide variety of drug-resistant microbial strains [3]
3.13 µg/mL: MIC (Ps. aeruginosa M-0002; [10]) | MIC (E. coli A-0001) | MIC (Sal. species D-0029) | MIC (Pro. vulgaris OX19) | MIC (Serra. marcescens No. 2) | MIC (E. coli No. 29) | MIC (Serra. marcescens No. 1) | MIC (E. coli A-0003) | MIC (Pro. morganii K-ono)
50 µg/mL: MIC (Str. faecalis ATCC 8043)
0.2 µg/mL: MIC (Sta. aureus ApO-1) | MIC (E. coli W 677(A-20684)) | MIC (Sta. epidermidis 109)
0.39 µg/mL: MIC (Sta. aureus N-0089) | MIC (Sta. aureus Smith S-424) | MIC (Sal. typhi 0-901-W)

NCCC(O)C(=O)NC1CC(N)C(OC2OC(CN)C=CC2N)C(O)C1OC1OC(CO)C(O)C(N)C1O [1-AHB-eno-DKB, 1-N-(L-4-amino-2-hydroxybutyryl)-3',4'-dideoxy-3',4'-didehydrokanamycin B]
0.78 µg/mL: MIC (E. coli W 677(A-20684)) | MIC [4] | MIC (Sal. typhi 0-901-W) | MIC (Sta. aureus No. 26)
6.25 µg/mL: MIC (Pro. rettgelli J-0026; [11]) | MIC (Serra. marcescens No. 2) | MIC (Ps. aeruginosa NC-5; [14]) | MIC (Serra. marcescens No. 1) | MIC [7, 11]
0.1 µg/mL: MIC (B. anthracis No. 119) | MIC [1] | MIC [9]
0.2 µg/mL: MIC (Sta. aureus N-0089) | MIC (Sta. epidermidis 109) | MIC (B. subtilis ATCC 6633) | MIC (Sta. aureus Smith S-424)
0.39 µg/mL: MIC (Sta. aureus ApO-1)
high antimicrobial activity: antimicrobial activity (various microorganisms)
50 µg/mL: MIC (Str. faecalis ATCC 8043)
12.5 µg/mL: MIC (Ps. aeruginosa M-0032; [13])
3.13 µg/mL: MIC (Ps. aeruginosa M-0002; [10]) | MIC [2, 12] | MIC (E. coli A-0001) | MIC (Sal. species D-0001) | MIC (Pro. vulgaris OX19) | MIC (E. coli No. 29) | MIC (Ps. aeruginosa E-2; [15]) | MIC (E. coli A-0003) | MIC [8, 11] | MIC (Ps. aeruginosa M-0148; M0148, nutrient agar, 37° C., 20 hours, read-out: MIC)
1.56 µg/mL: MIC (Sal. species D-0006) | MIC (Serra. marcescens I-0043; I0043, nutrient agar, 37° C., 20 hours, read-out: MIC) | MIC (Sal. typhimurium LT-2; [11]) | MIC (Pro. mirabilis J-0010; [16]) | MIC [5, 11] | MIC [6, 11] | MIC (Kleb. pneumoniae; [11]) | MIC (Pro. morganii K-ono) | MIC (Pro. vulgaris J-0001; [17]) | MIC (Ps. aeruginosa IAM-1007; [18])

NCC1C=CC(N)C(OC2C(N)CC(NC(=O)C(O)CN)C(OC3OC(CO)C(O)C(N)C3O)C2O)O1 [1-AHP-eno-DKB, 1-N-(L-isoseryl)-3',4'-dideoxy-3',4'-didehydrokanamycin B]
1.56 µg/mL: MIC (Ps. aeruginosa M-0002; M0002, 20 h) | MIC (Serra. marcescens I-0043; I0043, 20 h) | MIC [4] | MIC (Sal. typhi 0-901-W) | MIC ([5]; 20 h) | MIC (Kleb. pneumoniae; 20 h) | MIC (Ps. aeruginosa M-0148; M0148, 20 h)
0.1 µg/mL: MIC [9]
0.2 µg/mL: MIC (B. anthracis No. 119) | MIC [1] | MIC (Sta. epidermidis 109) | MIC (B. subtilis ATCC 6633)
3.13 µg/mL: MIC [2, 12] | MIC (Pro. vulgaris OX19) | MIC (Serra. marcescens No. 2) | MIC (Sal. typhimurium LT-2; [11]) | MIC (Ps. aeruginosa NC-5; [14]) | MIC (Ps. aeruginosa E-2; [15]) | MIC (Pro. mirabilis J-0010; [16]) | MIC (Serra. marcescens No. 1) | MIC [6, 11] | MIC [7, 11] | MIC [8, 11] | MIC (Pro. morganii K-ono) | MIC (Pro. vulgaris J-0001; [17])
25 µg/mL: MIC (Pro. rettgelli J-0026; [11])
6.25 µg/mL: MIC (E. coli A-0001) | MIC (Sal. species D-0006) | MIC (Sal. species D-0029) | MIC (Sal. species D-0001) | MIC (E. coli No. 29) | MIC (Ps. aeruginosa M-0032; [13]) | MIC (E. coli A-0003)
0.39 µg/mL: MIC (Sta. aureus N-0089) | MIC (Sta. aureus Smith S-424) | MIC (Sta. aureus No. 26)
50 µg/mL: MIC (Str. faecalis ATCC 8043)
0.78 µg/mL: MIC (Sta. aureus ApO-1) | MIC (E. coli W 677(A-20684)) | MIC (Ps. aeruginosa IAM-1007; [18])
